Nc1ncnc2nc[nH]c12
solubility (mole fraction)
Details	278.15 K	283.15 K	288.15 K	293.15 K	298.15 K	303.15 K	308.15 K	313.15 K	318.15 K
in DMF	0.00192	0.00205	0.00217	0.00232	0.00246	0.00262	0.00278	0.00295	0.00312
in DMSO	–	–	–	0.0111	0.0117	0.0124	0.0131	0.0137	0.0144
in NMP	0.0095	0.00971	0.0099	0.0101	0.0103	0.0105	0.0107	0.0109	0.0112
in propylene glycol	0.0106	0.0108	0.0109	0.0111	0.0112	0.0114	0.0115	0.0117	0.0118
in water	5.43e-05	6.88e-05	8.54e-05	0.000108	0.000134	0.000171	0.000216	0.000264	0.000321

Reference: BigSolDB 2.1
